# Measurements reported in PubChem BioAssay AID1963838 (Molecular Pharmacology Branch, DTP, NCI, 2024).
# Test system: 855422-203-R-J1-PDC complex spheroid viability
# Test: Anticancer human tumor 855422-203-R-J1-PDC patient-derived bladder carcinoma cell line growth inhibition [POLQ]
# Conditions: for IC50: curve of first compound; for viability, T/C: stronger effect = lower value
# Summary of the method: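 Patient-derived tumour cells were co-cultured with HUVEC and mesenchymal stem cells as multicellular spheroids at 37 °C. They were treated with POLQ inhibitors (novobiocin, ART-558, RP6685) alone or combined with other agents. Top concentrations were at or near clinical Cmax (otherwise 10 microM; SN-38 at 1 microM), decreasing in half-log steps.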
# [1] = second compound 0.0316 µM, first compound 0.0316 µM
# [2] = second compound 0.0316 µM, first compound 0.1 µM
# [3] = second compound 0.0316 µM, first compound 0.316 µM
# [4] = second compound 0.0316 µM, first compound 1 µM
# [5] = second compound 0.0316 µM, first compound 3.16 µM
# [6] = second compound 0.0316 µM, first compound 10 µM
# [7] = second compound 0.1 µM, first compound 0.0316 µM
# [8] = second compound 0.1 µM, first compound 0.1 µM
# [9] = second compound 0.1 µM, first compound 0.316 µM
# [10] = second compound 0.1 µM, first compound 1 µM
# [11] = second compound 0.1 µM, first compound 3.16 µM
# [12] = second compound 0.1 µM, first compound 10 µM
# [13] = second compound 0.316 µM, first compound 0.0316 µM
# [14] = second compound 0.316 µM, first compound 0.1 µM
# [15] = second compound 0.316 µM, first compound 0.316 µM
# [16] = second compound 0.316 µM, first compound 1 µM
# [17] = second compound 0.316 µM, first compound 3.16 µM
# [18] = second compound 0.316 µM, first compound 10 µM
# [19] = second compound 1 µM, first compound 0.0316 µM
# [20] = second compound 1 µM, first compound 0.1 µM
# [21] = second compound 1 µM, first compound 0.316 µM
# [22] = second compound 1 µM, first compound 1 µM
# [23] = second compound 1 µM, first compound 3.16 µM
# [24] = second compound 1 µM, first compound 10 µM
# [25] = second compound 3.16 µM, first compound 0.0316 µM
# [26] = second compound 3.16 µM, first compound 0.1 µM
# [27] = second compound 3.16 µM, first compound 0.316 µM
# [28] = second compound 3.16 µM, first compound 1 µM
# [29] = second compound 3.16 µM, first compound 3.16 µM
# [30] = second compound 3.16 µM, first compound 10 µM
# [31] = second compound 10 µM, first compound 0.0316 µM
# [32] = second compound 10 µM, first compound 0.1 µM
# [33] = second compound 10 µM, first compound 0.316 µM
# [34] = second compound 10 µM, first compound 1 µM
# [35] = second compound 10 µM, first compound 3.16 µM
# [36] = second compound 10 µM, first compound 10 µM
# 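Note: spheroids exposed to compounds for seven days before readout.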
structure (smiles),measurement,setting,value
CCc1cc2c(N3CCc4c(cc(Cn5ccnc5)cc4-c4cn(C)nc4C(F)(F)F)C3=O)ccnc2c(OC)n1 + Cc1cccc(N(C)C(=O)C2C(O)CCN2c2nc(C)cc(C(F)(F)F)c2C#N)c1,IC50,second compound 0.0316 µM,7.34 µM
same,IC50,second compound 0.1 µM,> 10 µM
same,IC50,second compound 0.316 µM,> 10 µM
same,IC50,second compound 1 µM,> 10 µM
same,IC50,second compound 3.16 µM,9.2 µM
same,IC50,second compound 10 µM,9.15 µM
same,"viability, T/C",[1],111%
same,"viability, T/C",[2],154%
same,"viability, T/C",[3],110%
same,"viability, T/C",[4],96.3%
same,"viability, T/C",[5],70.9%
same,"viability, T/C",[6],42.2%
same,"viability, T/C",[7],99.9%
same,"viability, T/C",[8],147%
same,"viability, T/C",[9],113%
same,"viability, T/C",[10],85.7%
same,"viability, T/C",[11],79.6%
same,"viability, T/C",[12],47.5%
same,"viability, T/C",[13],102%
same,"viability, T/C",[14],151%
same,"viability, T/C",[15],107%
same,"viability, T/C",[16],107%
same,"viability, T/C",[17],80.4%
same,"viability, T/C",[18],54.2%
same,"viability, T/C",[19],125%
same,"viability, T/C",[20],162%
same,"viability, T/C",[21],110%
same,"viability, T/C",[22],90%
same,"viability, T/C",[23],79.7%
same,"viability, T/C",[24],51.5%
same,"viability, T/C",[25],138%
same,"viability, T/C",[26],166%
same,"viability, T/C",[27],103%
same,"viability, T/C",[28],115%
same,"viability, T/C",[29],74.7%
same,"viability, T/C",[30],47.8%
same,"viability, T/C",[31],116%
same,"viability, T/C",[32],141%
same,"viability, T/C",[33],158%
same,"viability, T/C",[34],112%
same,"viability, T/C",[35],88.3%
same,"viability, T/C",[36],46.3%
COc1cc2cc(C(=O)CCC(=O)O)sc2cc1OC + Cc1cccc(N(C)C(=O)C2C(O)CCN2c2nc(C)cc(C(F)(F)F)c2C#N)c1,IC50,second compound 0.0316 µM,> 10 µM
same,IC50,second compound 0.1 µM,> 10 µM
same,IC50,second compound 0.316 µM,> 10 µM
same,IC50,second compound 1 µM,> 10 µM
same,IC50,second compound 3.16 µM,> 10 µM
same,IC50,second compound 10 µM,> 10 µM
same,"viability, T/C",[1],111%
same,"viability, T/C",[2],118%
same,"viability, T/C",[3],106%
same,"viability, T/C",[4],94%
same,"viability, T/C",[5],108%
same,"viability, T/C",[6],113%
same,"viability, T/C",[7],108%
same,"viability, T/C",[8],118%
same,"viability, T/C",[9],100%
same,"viability, T/C",[10],108%
same,"viability, T/C",[11],122%
same,"viability, T/C",[12],125%
same,"viability, T/C",[13],96.6%
same,"viability, T/C",[14],149%
same,"viability, T/C",[15],103%
same,"viability, T/C",[16],95.5%
same,"viability, T/C",[17],116%
same,"viability, T/C",[18],102%
same,"viability, T/C",[19],85.4%
same,"viability, T/C",[20],131%
same,"viability, T/C",[21],102%
same,"viability, T/C",[22],129%
same,"viability, T/C",[23],112%
same,"viability, T/C",[24],89.2%
same,"viability, T/C",[25],118%
same,"viability, T/C",[26],122%
same,"viability, T/C",[27],102%
same,"viability, T/C",[28],126%
same,"viability, T/C",[29],129%
same,"viability, T/C",[30],120%
same,"viability, T/C",[31],108%
same,"viability, T/C",[32],127%
same,"viability, T/C",[33],121%
same,"viability, T/C",[34],114%
same,"viability, T/C",[35],114%
same,"viability, T/C",[36],114%
COc1ccc([C@@H](O)c2cc(-c3ncnc4cc(N5CCOCC5)ccc34)c(F)cc2Cl)nn1 + Cc1cccc(N(C)C(=O)C2C(O)CCN2c2nc(C)cc(C(F)(F)F)c2C#N)c1,IC50,second compound 0.0316 µM,5.34 µM
same,IC50,second compound 0.1 µM,5.16 µM
same,IC50,second compound 0.316 µM,4.25 µM
same,IC50,second compound 1 µM,3.05 µM
same,IC50,second compound 3.16 µM,4.18 µM
same,IC50,second compound 10 µM,2.37 µM
same,"viability, T/C",[1],98.5%
same,"viability, T/C",[2],109%
same,"viability, T/C",[3],107%
same,"viability, T/C",[4],84.7%
same,"viability, T/C",[5],66.1%
same,"viability, T/C",[6],32.7%
same,"viability, T/C",[7],93.1%
same,"viability, T/C",[8],101%
same,"viability, T/C",[9],83.8%
same,"viability, T/C",[10],87.7%
same,"viability, T/C",[11],63.9%
same,"viability, T/C",[12],30.1%
same,"viability, T/C",[13],101%
same,"viability, T/C",[14],111%
same,"viability, T/C",[15],104%
same,"viability, T/C",[16],82.3%
same,"viability, T/C",[17],58.1%
same,"viability, T/C",[18],31.2%
same,"viability, T/C",[19],98.8%
same,"viability, T/C",[20],97.2%
same,"viability, T/C",[21],99.7%
same,"viability, T/C",[22],86.5%
same,"viability, T/C",[23],49%
same,"viability, T/C",[24],26.3%
same,"viability, T/C",[25],108%
same,"viability, T/C",[26],106%
same,"viability, T/C",[27],89%
same,"viability, T/C",[28],79.5%
same,"viability, T/C",[29],56.2%
same,"viability, T/C",[30],29.6%
same,"viability, T/C",[31],96.4%
same,"viability, T/C",[32],105%
same,"viability, T/C",[33],96.5%
same,"viability, T/C",[34],66.8%
same,"viability, T/C",[35],47%
same,"viability, T/C",[36],28.8%
O=C(Nc1ccc(O)c(NS(=O)(=O)c2ccc(F)cc2)c1)c1ccc(-c2ccccc2)cc1 + Cc1cccc(N(C)C(=O)C2C(O)CCN2c2nc(C)cc(C(F)(F)F)c2C#N)c1,IC50,second compound 0.0316 µM,> 10 µM
same,IC50,second compound 0.1 µM,> 10 µM
same,IC50,second compound 0.316 µM,> 10 µM
same,IC50,second compound 1 µM,> 10 µM
same,IC50,second compound 3.16 µM,> 10 µM
same,IC50,second compound 10 µM,7.89 µM
same,"viability, T/C",[1],113%
same,"viability, T/C",[2],107%
same,"viability, T/C",[3],95%
same,"viability, T/C",[4],85.3%
same,"viability, T/C",[5],106%
same,"viability, T/C",[6],66.2%
same,"viability, T/C",[7],110%
same,"viability, T/C",[8],122%
same,"viability, T/C",[9],98.5%
same,"viability, T/C",[10],92.8%
same,"viability, T/C",[11],109%
same,"viability, T/C",[12],58.4%
same,"viability, T/C",[13],99%
same,"viability, T/C",[14],104%
same,"viability, T/C",[15],108%
same,"viability, T/C",[16],111%
same,"viability, T/C",[17],128%
same,"viability, T/C",[18],60.8%
same,"viability, T/C",[19],97.5%
same,"viability, T/C",[20],123%
same,"viability, T/C",[21],91.6%
same,"viability, T/C",[22],105%
same,"viability, T/C",[23],115%
same,"viability, T/C",[24],59.7%
same,"viability, T/C",[25],88.6%
same,"viability, T/C",[26],124%
same,"viability, T/C",[27],125%
same,"viability, T/C",[28],105%
same,"viability, T/C",[29],120%
same,"viability, T/C",[30],52.7%
same,"viability, T/C",[31],125%
same,"viability, T/C",[32],110%
same,"viability, T/C",[33],125%
same,"viability, T/C",[34],106%
same,"viability, T/C",[35],111%
same,"viability, T/C",[36],34.1%
